Tests used:
Cav3.2 = target: T1, Cav3.2 (Homo sapiens, UniProt O95180); assay: Whole-cell patch-clamp on Cav3.2: concentration-response and steady-state inactivation; format: cell-based; conditions: 10 μM; for half-inactivation potential after treatment with drug: n = 4
T1 construct: expressed in transfected cells; host or cells: tsA-201 cells, transient calcium phosphate transfection
Description: To further characterize compounds NMP-4, NMP-7 and NMP-144, we investigated the concentration dependence of their action on Cav3.2, the major T-type calcium channel subtype implicated in the afferent pain pathway (Figure 2B, C).
To determine whether these compounds also affected inactivated channels, we recorded steady-state inactivation curves prior and after application of NMP-4, NMP-7 or NMP-144.
Whole-cell currents were recorded from tsa-201 cells 2-4 days after transfection. The external recording solution contained (in mM): BaCl2 (20), MgCl2 (1), HEPES (10), TEA-Cl (40), CsCl (65), d-glucose (10) and pH 7.2 adjusted with TEA-OH. The internal pipette solution was composed of (in mM) Cs-methanesulfonate (108), MgCl2 (4), EGTA (9), HEPES (9) and pH 7.2 adjusted with CsOH. The internal solution was supplemented with 0.6 mM GTP (sodium salt) and 2 mM ATP (tris salt), which were added directly to the internal solution immediately prior to use. Pipettes with a resistance of 2~5 MΩ when filled with internal solution were used for recording. Currents were elicited from a holding potential of -100 mV and were measured by conventional whole-cell patch clamp using an Axopatch 200B amplifier in combination with Clampex 9.2 software (Axon Instruments, Foster City, CA). Data were filtered at 1 kHz (8-pole Bessel) and digitized at 10 kHz with a Digidata 1320 (Axon Instruments, Foster City, CA). Series resistance were compensated by 85% in all experiments. An online P/4 programme was used to subtract the leak currents. Drugs were dissolved in DMSO at the following stock concentrations: 20 mM for NMP-4 and NMP-7, and 10 mM for NMP-139, NMP-140, NMP-141 and NMP-144. Prior to the experiment, drugs were diluted into external recording solution with a final DMSO concentration no higher than 0.3%. DMSO was also included in the control solution. Drug delivery was controlled by a Valvelink8.2 fast perfusion system (Automate Scientific Inc., Berkeley, CA). The perfusion tip was positioned a few hundred microns from the cell and kept as constant as possible throughout the experiments. Electrophysiological data were analyzed using Clampfit 9.2 (Axon Instruments, Foster City, CA) and GraphPad Prism 5 software (GraphPad Software Inc., San Diego, CA). […] Steady-state inactivation curves were fitted using the Boltzmann equation: I = 1/(1 + e ^(V-Vh)/k), where Vh is the half inactivating potential and k is the slope factor.

formalin-induced pain = assay: Formalin test (formalin-induced nociception); format: in vivo, mice; conditions: for effect on second phase of formalin-induced nociception / effect on first phase of formalin-induced nociception: i.pl., co-injected with formalin; for effect on second phase of formalin-induced nociception: 0.03-3 μg/paw; for effect on first phase of formalin-induced nociception: NMP-4 and NMP-144 0.03-3 μg/paw, NMP-7 0.3-3 μg/i.pl.; for reduction of pain response time, first (neurogenic) phase / reduction of pain response time, second (inflammatory) phase: 10 min prior, NMP-4 1-10 μg/i.t., NMP-144 0.1-1 μg/i.t., NMP-7 3-30 μg/i.t., mice
Description: All experiments were conducted following the protocol approved by the Institutional Animal Care and Use Committee (protocol #M09130) and all efforts were made to minimize animal suffering. Male mice of C57BL/6J strain weighing 25~30 g, 10 weeks old were used. Animals were housed at a maximum number of five per cage (30 × 20 × 15 cm) with food and water ad libitum. They were kept in 12 h light/dark cycles (lights on at 7:00 a.m.) at a temperature of 23 ± 1°C. All manipulations were carried out between 11:00 am and 3:00 pm. […] Control animals received the same vehicle used to dilute the compounds. When drugs were delivered by intraperitoneal (i.p.) route, a constant volume of 10 ml/kg body weight was injected. When drugs were administered by intrathecal (i.t.) or intraplantar (i.pl.) routes, respectively volumes of 5 μl or 20 μl were injected. Appropriate vehicle-treated groups were also assessed simultaneously.
The formalin test is a widely used model that allows us to evaluate two different types of pain: neurogenic pain (phase 1) is caused by direct activation of nociceptive nerve terminals, while inflammatory pain (phase 2) is mediated by a combination of peripheral input and spinal cord sensitization. Animals received 20 μl of a formalin solution (1.25%) made up in PBS injected intraplantarly (i.pl.) in the ventral surface of the right hindpaw. Following i.pl. injection of formalin, the animals were immediately placed individually into observation chambers and the time spent licking or biting the injected paw was be recorded and considered as nociceptive response. We observed animals individually from 0-5 min (neurogenic phase) and 15-30 min (inflammatory phase).
Intrathecal injections were given to fully conscious mice using the method previously described by Hylden and Wilcox. Briefly, the animals were manually restrained, and a 30-gauge needle connected by a polyethylene tube to a 25 μl Hamilton syringe (Hamilton, Birmingham, UK) was inserted through the skin and between the vertebrae into the […] space of the L5-L6 spinal segments. Intrathecal injections were given over a period of 5 seconds.

T1 sequence (O95180 whole entry): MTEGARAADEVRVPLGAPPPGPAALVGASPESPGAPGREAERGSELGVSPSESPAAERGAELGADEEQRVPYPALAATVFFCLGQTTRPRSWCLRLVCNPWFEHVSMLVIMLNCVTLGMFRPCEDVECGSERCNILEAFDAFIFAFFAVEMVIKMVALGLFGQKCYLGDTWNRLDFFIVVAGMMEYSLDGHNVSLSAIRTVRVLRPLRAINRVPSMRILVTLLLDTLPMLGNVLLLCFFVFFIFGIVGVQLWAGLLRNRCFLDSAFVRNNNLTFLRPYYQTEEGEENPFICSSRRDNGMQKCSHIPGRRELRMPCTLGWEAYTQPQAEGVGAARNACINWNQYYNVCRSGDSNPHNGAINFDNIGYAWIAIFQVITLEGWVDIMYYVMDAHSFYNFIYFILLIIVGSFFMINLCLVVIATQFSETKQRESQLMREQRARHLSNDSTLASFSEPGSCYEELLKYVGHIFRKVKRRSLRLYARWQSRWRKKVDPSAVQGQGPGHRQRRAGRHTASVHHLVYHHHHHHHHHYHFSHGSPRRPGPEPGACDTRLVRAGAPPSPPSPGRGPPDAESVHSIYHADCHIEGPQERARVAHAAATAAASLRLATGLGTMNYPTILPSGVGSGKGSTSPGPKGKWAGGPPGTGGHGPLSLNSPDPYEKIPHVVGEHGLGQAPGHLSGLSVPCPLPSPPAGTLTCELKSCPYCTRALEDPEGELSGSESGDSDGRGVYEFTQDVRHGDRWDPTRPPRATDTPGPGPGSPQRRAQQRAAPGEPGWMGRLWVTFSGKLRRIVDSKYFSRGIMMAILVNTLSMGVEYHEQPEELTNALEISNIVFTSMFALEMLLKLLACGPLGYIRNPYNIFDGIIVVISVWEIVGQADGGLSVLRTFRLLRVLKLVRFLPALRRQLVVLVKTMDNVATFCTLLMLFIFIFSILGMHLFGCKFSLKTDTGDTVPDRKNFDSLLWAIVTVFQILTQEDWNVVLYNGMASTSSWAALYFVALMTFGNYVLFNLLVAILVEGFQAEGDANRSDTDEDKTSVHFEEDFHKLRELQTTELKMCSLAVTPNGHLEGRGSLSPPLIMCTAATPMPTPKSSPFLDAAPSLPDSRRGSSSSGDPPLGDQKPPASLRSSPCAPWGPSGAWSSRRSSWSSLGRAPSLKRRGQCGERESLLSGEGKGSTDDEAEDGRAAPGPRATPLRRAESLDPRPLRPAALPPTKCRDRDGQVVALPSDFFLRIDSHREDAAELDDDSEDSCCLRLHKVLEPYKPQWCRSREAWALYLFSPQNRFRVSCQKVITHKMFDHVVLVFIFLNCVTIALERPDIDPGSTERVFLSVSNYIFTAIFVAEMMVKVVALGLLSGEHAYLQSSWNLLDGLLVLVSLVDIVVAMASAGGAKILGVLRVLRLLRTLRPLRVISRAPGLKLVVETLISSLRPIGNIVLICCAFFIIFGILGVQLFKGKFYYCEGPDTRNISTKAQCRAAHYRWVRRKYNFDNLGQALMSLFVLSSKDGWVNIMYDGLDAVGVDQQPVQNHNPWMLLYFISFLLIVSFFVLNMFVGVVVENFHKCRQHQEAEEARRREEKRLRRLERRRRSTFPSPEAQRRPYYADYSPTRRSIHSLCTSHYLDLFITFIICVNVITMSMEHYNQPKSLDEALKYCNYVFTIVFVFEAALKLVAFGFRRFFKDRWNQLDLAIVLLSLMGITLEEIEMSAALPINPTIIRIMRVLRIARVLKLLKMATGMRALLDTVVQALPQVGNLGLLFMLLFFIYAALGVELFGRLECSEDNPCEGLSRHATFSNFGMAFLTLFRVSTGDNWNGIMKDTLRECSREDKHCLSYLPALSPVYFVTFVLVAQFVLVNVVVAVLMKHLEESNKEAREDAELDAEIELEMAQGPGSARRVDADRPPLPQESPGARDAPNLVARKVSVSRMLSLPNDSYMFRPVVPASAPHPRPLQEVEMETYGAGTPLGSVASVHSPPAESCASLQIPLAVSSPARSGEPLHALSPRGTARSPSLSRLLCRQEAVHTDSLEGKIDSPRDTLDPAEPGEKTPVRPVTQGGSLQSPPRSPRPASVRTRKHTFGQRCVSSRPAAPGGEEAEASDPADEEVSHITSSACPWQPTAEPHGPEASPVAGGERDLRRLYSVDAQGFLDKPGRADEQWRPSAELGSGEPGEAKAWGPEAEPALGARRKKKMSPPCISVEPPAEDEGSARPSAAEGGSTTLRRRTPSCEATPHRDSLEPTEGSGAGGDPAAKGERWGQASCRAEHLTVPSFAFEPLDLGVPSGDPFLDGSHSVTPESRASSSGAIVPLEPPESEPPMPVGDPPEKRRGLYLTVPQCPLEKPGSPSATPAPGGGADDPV

Structure (SMILES) | hyperpolarizing shift in the half inactivation potential of Cav3.2 channels (Cav3.2) | half-inactivation potential after treatment with drug (Cav3.2) | effect of i.pl. pre-treatment on the antinociceptive effect of NMP-7 (1 μg/i.pl.), first phase (formalin-induced pain; NMP-4 0.03 μg/i.pl. pre-treatment) | effect on second phase of formalin-induced nociception (formalin-induced pain) | effect on first phase of formalin-induced nociception (formalin-induced pain) | reduction of pain response time, first (neurogenic) phase (formalin-induced pain; i.t.) | reduction of pain response time, second (inflammatory) phase (formalin-induced pain; i.t.) | lowest dose producing analgesia (formalin-induced pain; i.t., formalin response)
CCCCCn1c2ccc(C(=O)N3CCCCC3)cc2c2ccc(OC)cc21 [NMP-4] | 20 mV | -72.9 ± 4.7 mV | significantly antagonized | no effect was observed | no effect was observed | 44 ± 4% | 87 ± 7% | –
CCCCCn1c2c(c3ccc(OC)cc31)CN(C(=O)c1ccccc1)CC2 [NMP-144] | did not significantly affect voltage-dependent inactivation | -55.8 ± 2.2 mV | – | no effect was observed | no effect was observed | 52 ± 3% | 53 ± 14% | 0.3 μg/i.t.

— publication PMC3250956, “Functional characterization and analgesic effects of mixed cannabinoid receptor/T-type channel ligands” (Molecular Pain, 2011)
